IC50 data for three compounds are collected here from the Kinase Knowledgebase extract (Sharma et al. 2016).

As usually defined, the IC50 is the concentration that inhibits the measured activity by half. Lower therefore signals greater potency in that assay.

In the experiment the target is EGFR (mouse) (UniProt P00533). The settings on record: swiss 3t3 membrane.

In the case of `N#C/C(=C\c1c[nH]c2ccccc12)C(=O)c1ccc(O)c(O)c1`, the IC50 stood at 30 µM.
For `N#CC(C#N)=C(N)/C(C#N)=C/c1c[nH]c2ccccc12`, the 50% inhibitory concentration (IC50) was greater than 300 µM.
The same measure for `COc1ccc(OC)c2nc(Cl)c(-c3ccccc3)cc12`: greater than 30 µM.
